Measurements taken from PMC6467771 (Journal of medicinal chemistry, 2019).

Target: FmlH (Escherichia coli, UniProt Q1RBS0)
Format: binding, Escherichia coli (UPEC, CFT073)
Conditions: ELISA IC50 ratio

SMILES | fold drop in activity relative to 1 | fold greater potency / improvement in activity relative to 1
COc1ccc(C(=O)O)cc1-c1ccccc1O[C@@H]1O[C@H](CO)[C@H](O)[C@H](O)[C@H]1NC(C)=O [Compound 31, 2’-(((2S,3R,4R,5R,6R)-3-Acetamido-4,5-dihydroxy-6 (hydroxymethyl)tetrahydro-2H-pyran-2-yl)oxy)-6-methoxy-[1,1’- biphenyl]-3-carboxylic Acid] | 6 fold | 
CC(=O)N[C@H]1[C@H](Oc2ccccc2-c2cccc(NS(C)(=O)=O)c2)O[C@H](CO)[C@H](O)[C@@H]1O [Compound 50, N-((2S,3R,4R,5R,6R)-4,5-Dihydroxy-6-(hydroxymethyl)-2-((3’- (methylsulfonamido)-[1,1’-biphenyl]-2-yl)oxy)tetrahydro-2H-pyran-3-yl)acetamide] |  | 3 fold

Same assay, conditions: ELISA IC50 ratio; 50 vs 51, 30 vs 29

SMILES | fold more potent than the matched pair Gal/GalNAc derivative
O=C(O)c1cc(-c2ccccc2O[C@@H]2O[C@H](CO)[C@H](O)[C@H](O)[C@H]2O)cc([N+](=O)[O-])c1 [Compound 30, 5-Nitro-2’-(((2S,3R,4S,5R,6R)-3,4,5-trihydroxy-6-(hydroxymethyl)-tetrahydro-2H-pyran-2-yl)oxy)-[1,1’-biphenyl]-3-carboxylic Acid] | 6 fold
CC(=O)N[C@H]1[C@H](Oc2ccccc2-c2cccc(NS(C)(=O)=O)c2)O[C@H](CO)[C@H](O)[C@@H]1O [Compound 50, N-((2S,3R,4R,5R,6R)-4,5-Dihydroxy-6-(hydroxymethyl)-2-((3’- (methylsulfonamido)-[1,1’-biphenyl]-2-yl)oxy)tetrahydro-2H-pyran-3-yl)acetamide] | about 5 fold

Same assay, conditions: IC50, ELISA, FmlH binding to desialylated bovine submaxillary mucin; average of four or more replicates

SMILES | IC50
CC(=O)NC1[C@H](Oc2ccccc2-c2cccc(NC(=O)C(F)(F)F)c2)O[C@H](CO)[C@H](O)[C@@H]1O (stereo in doubt) [Compound 44, N-(2’-(((2S,3S,4R,5R)-3-Acetamido-4,5-dihydroxy-6 (hydroxymethyl)tetrahydro-2H-pyran-2-yl)oxy)-[1,1’-biphenyl]-3-yl)-2,2,2-trifluoroacetamide] | 370 nM
CC(=O)NC1[C@H](Oc2cccc(C)c2-c2cccc(NS(=O)(=O)N(C)C)c2)O[C@H](CO)[C@H](O)[C@@H]1O (stereo in doubt) [Compound 87, N-((2S,3S,4R,5R)-2-((3’-((N,N-Dimethylsulfamoyl)amino)-6-methyl-[1,1’-biphenyl]-2-yl)oxy)-4,5-dihydroxy-6-(hydroxymethyl)-tetrahydro-2H-pyran-3-yl)acetamide] | 77 nM
CC(=O)N[C@H]1[C@H](Oc2ccccc2-c2cc(C(=O)O)cc([N+](=O)[O-])c2)O[C@H](CO)[C@H](O)[C@@H]1O [Compound 29, 2’-(((2S,3S/4R/5R)-3-Acetamido-4,5-dihydroxy-6-(hydroxymethyl)tetrahydro-2H-pyran-2-yl)oxy)-5-nitro-[1, 1’-bi-phenyl]-3-carboxylic Acid] | 2200 nM
O=C(O)c1cc(-c2ccccc2O[C@@H]2O[C@H](CO)[C@H](O)[C@H](O)[C@H]2O)cc([N+](=O)[O-])c1 [Compound 30, 5-Nitro-2’-(((2S,3R,4S,5R,6R)-3,4,5-trihydroxy-6-(hydroxymethyl)-tetrahydro-2H-pyran-2-yl)oxy)-[1,1’-biphenyl]-3-carboxylic Acid] | 280 nM
COc1ccc(C(=O)O)cc1-c1ccccc1O[C@@H]1O[C@H](CO)[C@H](O)[C@H](O)[C@H]1NC(C)=O [Compound 31, 2’-(((2S,3R,4R,5R,6R)-3-Acetamido-4,5-dihydroxy-6 (hydroxymethyl)tetrahydro-2H-pyran-2-yl)oxy)-6-methoxy-[1,1’- biphenyl]-3-carboxylic Acid] | 3900 nM
CC(=O)N[C@H]1[C@H](Oc2ccccc2-c2cccc(O)c2)O[C@H](CO)[C@H](O)[C@@H]1O [Compound 32, N-((2S,3R,4R,5R,6R)-4,5-Dihydroxy-2-((3’-hydroxy-[1,1’ biphenyl]-2-yl)oxy)-6-(hydroxymethyl)tetrahydro-2H-pyran-3-yl)-acetamide] | 700 nM
CC(=O)N[C@H]1[C@H](Oc2ccccc2-c2cccc(OS(C)(=O)=O)c2)O[C@H](CO)[C@H](O)[C@@H]1O [Compound 33, 2’-(((2S,3R,4R,5R,6R)-3-Acetamido-4,5-dihydroxy-6-(hydroxymethyl)tetrahydro-2H-pyran-2-yl)oxy)-[1,1’-biphenyl]-3-yl methanesulfonate] | 890 nM
COc1ccc(O)cc1-c1ccccc1O[C@@H]1O[C@H](CO)[C@H](O)[C@H](O)[C@H]1NC(C)=O [Compound 34, N-((2S,3R,4R,5R,6R)-4,5-Dihydroxy-2-((5’-hydroxy-2’ methoxy-[1,1’-biphenyl]-2-yl)oxy)-6-(hydroxymethyl)tetrahydro-2H-pyran-3-yl)acetamide] | 510 nM
COc1ccc(OS(C)(=O)=O)cc1-c1ccccc1O[C@@H]1O[C@H](CO)[C@H](O)[C@H](O)[C@H]1NC(C)=O [Compound 35, 2’-(((2S,3R,4R,5R,6R)-3-Acetamido-4,5-dihydroxy-6 (hydroxymethyl)tetrahydro-2H-pyran-2-yl)oxy)-6-methoxy-[1,1’-biphenyl]-3-yl Methanesulfonate] | 3700 nM
CC(=O)N[C@H]1[C@H](Oc2ccccc2-c2cccc(F)c2)O[C@H](CO)[C@H](O)[C@@H]1O [Compound 36, N-((2S,3R,4R,5R,6R)-2-((3 ‘-Fluoro-[1,1’-biphenyl]-2-yl)oxy)-4,5-dihydroxy-6-(hydroxymethyl)tetrahydro-2H-pyran-3-yl)acetamide] | 1500 nM
COc1cccc(-c2ccccc2O[C@@H]2O[C@H](CO)[C@H](O)[C@H](O)[C@H]2NC(C)=O)c1 [Compound 37, N-((2S,3R,4R,5R,6R)-4,5-Dihydroxy-6-(hydroxymethyl)-2-((3’-me-thoxy-[1,1’-biphenyl]-2-yl)oxy)tetrahydro-2H-pyran-3-yl)-acetamide] | 2000 nM
CC(=O)N[C@H]1[C@H](Oc2ccccc2-c2cccc([N+](=O)[O-])c2)O[C@H](CO)[C@H](O)[C@@H]1O [Compound 38, N-((2S,3R,4R,5R,6R)-4,5-Dihydroxy-6-(hydroxymethyl)-2-((3’-nitro-[1,1’-biphenyl]-2-yl)oxy)tetrahydro-2H-pyran-3-yl)acetamide] | 2700 nM
CC(=O)N[C@H]1[C@H](Oc2ccccc2-c2cccc(C#N)c2)O[C@H](CO)[C@H](O)[C@@H]1O [Compound 39, N-((2S,3R,4R,5R,6R)-2-((3’-Cyano-[1,1’-biphenyl]-2-yl)oxy)-4,5-dihydroxy-6-(hydroxymethyl)tetrahydro-2H-pyran-3-yl)acetamide] | 970 nM
CC(=O)N[C@H]1[C@H](Oc2ccccc2-c2cccc(C(F)(F)F)c2)O[C@H](CO)[C@H](O)[C@@H]1O [Compound 40, N-((2S,3R,4R/5R/6R)-4/5-Dihydroxy-6-(hydroxymethyl)-2-((3’-(tri-fluoromethyl)-[1,1’-biphenyl]-2-yl)oxy)tetrahydro-2H-pyran-3-yl) acetamide] | 1500 nM
CC(=O)N[C@H]1[C@H](Oc2ccccc2-c2cccc(S(C)(=O)=O)c2)O[C@H](CO)[C@H](O)[C@@H]1O [Compound 41, N-((2S,3R,4R,5R,6R)-4,5-Dihydroxy-6-(hydroxymethyl)-2-((3’- (methylsulfonyl)-[1,1’-biphenyl]-2-yl)oxy)tetrahydro-2H-pyran-3-yl)acetamide] | 700 nM
CC(=O)N[C@H]1[C@H](Oc2ccccc2-c2cccc(CO)c2)O[C@H](CO)[C@H](O)[C@@H]1O [Compound 42, N-((2S,3R,4R/5R/6R)-4/5-Dihydroxy-6-(hydroxymethyl)-2-((3’-(hy-droxymethyl)-[1,1’-biphenyl]-2-yl)oxy)tetrahydro-2H-pyran-3-yl)-acetamide] | 630 nM
CC(=O)Nc1cccc(-c2ccccc2O[C@@H]2O[C@H](CO)[C@H](O)[C@H](O)[C@H]2NC(C)=O)c1 [Compound 43, N-(2’-(((2S,3R,4R,5R,6R)-3-Acetamido-4,5-dihydroxy-6-(hydroxymethyl)tetrahydro-2H-pyran-2-yl)oxy)-[1,1’-biphenyl]-3-yl)acetamide] | 310 nM
COC(=O)Nc1cccc(-c2ccccc2O[C@@H]2O[C@H](CO)[C@H](O)[C@H](O)[C@H]2NC(C)=O)c1 [Compound 45, Methyl(2’-(((2S,3R/4R/5R,6R)-3-Acetamido-4/5-dihydroxy-6-(hydroxymethyl)tetrahydro-2H-pyran-2-yl)oxy)-[1,1’-biphenyl]-3 yl)carbamate] | 630 nM
CC(=O)N[C@H]1[C@H](Oc2ccccc2-c2cccc(C(=O)N(C)C)c2)O[C@H](CO)[C@H](O)[C@@H]1O [Compound 46, 2’-(((2S,3R,4R,5R,6R)-3-Acetamido-4,5-dihydroxy-6-(hydroxymethyl)tetrahydro-2H-pyran-2-yl)oxy)-N,N-dimethyl-[1,1’- biphenyl]-3-carboxamide] | 3100 nM
CNC(=O)c1cccc(-c2ccccc2O[C@@H]2O[C@H](CO)[C@H](O)[C@H](O)[C@H]2NC(C)=O)c1 [Compound 47, 2’-(((2S,3R,4R,5R,6R)-3-Acetamido-4,5-dihydroxy-6-(hydroxymethyl)tetrahydro-2H-pyran-2-yl)oxy)-N-methyl-[1,1’-bi-phenyl]-3-carboxamide] | 3400 nM
CC(=O)N[C@H]1[C@H](Oc2ccccc2-c2cccc(C(N)=O)c2)O[C@H](CO)[C@H](O)[C@@H]1O [Compound 48, 2’-(((2S,3R,4R,5R,6R)-3-Acetamido-4,5-dihydroxy-6 (hydroxymethyl)tetrahydro-2H-pyran-2-yl)oxy)-[1,1’-biphenyl]-3-carboxamide] | 1600 nM
CC(=O)N[C@H]1[C@H](Oc2ccccc2-c2cccc(NS(=O)(=O)C(F)(F)F)c2)O[C@H](CO)[C@H](O)[C@@H]1O [Compound 49, N-((2S,3R,4R,5R,6R)-4,5-Dihydroxy-6-(hydroxymethyl)-2-((3’-((trifluoromethyl)sulfonamido)-[1,1’-biphenyl]-2-yl)oxy)-tetrahydro-2H-pyran-3-yl)acetamide] | 1100 nM
CC(=O)N[C@H]1[C@H](Oc2ccccc2-c2cccc(NS(C)(=O)=O)c2)O[C@H](CO)[C@H](O)[C@@H]1O [Compound 50, N-((2S,3R,4R,5R,6R)-4,5-Dihydroxy-6-(hydroxymethyl)-2-((3’- (methylsulfonamido)-[1,1’-biphenyl]-2-yl)oxy)tetrahydro-2H-pyran-3-yl)acetamide] | 230 nM
CS(=O)(=O)Nc1cccc(-c2ccccc2O[C@@H]2O[C@H](CO)[C@H](O)[C@H](O)[C@H]2O)c1 [Compound 51, N-(2’-(((2S,3R,4S,5R,6R)-3,4,5-Trihydroxy-6-(hydroxymethyl)-tetrahydro-2H-pyran-2-yl)oxy)-[1,1’-biphenyl]-3-yl)-methanesulfonamide] | 1600 nM
CC(=O)N[C@H]1[C@H](Oc2cccc([N+](=O)[O-])c2-c2cccc(NS(C)(=O)=O)c2)O[C@H](CO)[C@H](O)[C@@H]1O [Compound 78, N-((2S,3R,4R,5R,6R)-4,5-Dihydroxy-6-(hydroxymethyl)-2-((3’- (methylsulfonamido)-6-nitro-[1,1’-biphenyl]-2-yl)oxy)tetrahydro-2H-pyran-3-yl)acetamide] | 58 nM
CC(=O)N[C@H]1[C@H](Oc2cccc(C#N)c2-c2cccc(NS(C)(=O)=O)c2)O[C@H](CO)[C@H](O)[C@@H]1O [Compound 79, N-((2S,3S,4R,5R)-2-((6-Cyano-3’-(methylsulfonamido)-[1,1’-bi-phenyl]-2-yl)oxy)-4,5-dihydroxy-6-(hydroxymethyl)tetra’hydro-2H-pyran-3-yl)acetamide] | 44 nM
